# Tests used:
# HT-29 xenografts = details: up to three hours post-treatment; cited from earlier work
# human tumor xenografts = details: cited from earlier work
# advanced malignancies = details: cited from earlier work
# HT-29 tumor xenografts = assay: DCE-MRI with Gd-BSA: tumor vascular permeability and vascular volume fraction; assay type: in vivo, SCID mice
# human VEGF (hVEGF) = assay: Human VEGF ELISA in HT-29 xenograft tumors after PX-12; assay type: in vivo, SCID mice; details: PX-12 25 mg/kg ip
# Procedure: (§1) FIG. 12. Human VEGF levels (pg/μg protein) in HT-29 xenografts, and VEGF levels (pg/ml) in plasma after treatment with PX-12, 25 mg/kg ip (n=4 mice per time point).
# (§2) VEGF detection. Plasma was collected into EDTA tubes and tumors were removed and immediately snap frozen in liquid nitrogen. Tumors were then placed in buffer (10 mM Tris/HCl pH 7.4, and 100 mM NaCl) and homogenized using a PowerGen 125, Fisher Scientific, Pittsburgh, Pa. The suspension was then centrifuged twice at 8,000×g at 4° C. for 15 min. Protein was quantitated in supernatant using the Pierce BCA assay. VEGF levels were quantitated in plasma and tumor lysates using both human (hVEGF) and mouse VEGF […] ELISAs (R&D systems, Minneapolis, Minn.), according the manufactures' instructions.
# (§3) This example illustrates the effects of PX-12 on plasma and tumor VEGF levels, as measured by ELISA assays. In these xenografts, hVEGF is derived from the tumor and mVEGF from the host vasculature and stromal tissue, resulting in considerably higher hVEGF than mVEGF in the tumor. Although the endothelium is mouse derived, hVEGF inhibition in xenograft models has been reported to cause obliteration of the host tumor vasculature, implying that hVEGF is active at mouse VEGF receptors VEGFRI (Flt-i) and VEGFR2 (KDR). Therefore, levels of both mouse and human VEGF were measured in the tumor and plasma samples collected.
# Trx-1 = target: T1, Trx-1 (Homo sapiens, UniProt P10599); details: cited from earlier work
# T1 sequence (P10599 1-105): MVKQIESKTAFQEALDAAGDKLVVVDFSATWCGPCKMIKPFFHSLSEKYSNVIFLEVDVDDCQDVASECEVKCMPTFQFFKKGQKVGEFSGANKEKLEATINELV
# mouse VEGF (mVEGF) = assay: Mouse VEGF ELISA in tumor and plasma of HT-29 xenograft mice after PX-12; assay type: in vivo, SCID mice
# Procedure: as §1, §2, §3
# Some tumors are reported to secrete VEGF into the plasma which can then act on endothelial cells in a paracrine manner or on tumor cells in an autocrine loop if the tumor expresses the VEGF receptors VEGFRI or VEGFR2. Plasma hVEGF expression was too low to be detected in the plasma from the HT-29 xenografts.
# current tumor model = details: by 24 h post-treatment; cited from earlier work
# hypoxic cells = details: cited from earlier work
compound,measurement,setting,value
Cc1ccc2c(=O)c3cccc(CC(=O)O)c3oc2c1C [DMXAA],tumor perfusion,HT-29 xenografts,considerably decreased
"CCC(C)SSc1ncc[nH]1 (stereo not shown) [PX-12, 1-methylpropyl 2-imidazolyl disulfide]",in vivo antitumor activity,human tumor xenografts; human tumor xenografts in SCID mice,in vivo antitumor activity
same,expression of HIF 1α and VEGF and microvessel density,human tumor xenografts; xenograft tumors,significant decreases
same,circulating levels of VEGF in patients,advanced malignancies; as soon as 4 hours post drug administration,decrease
same,antitumor activity in phase I study,advanced malignancies; patients with advanced malignancies,revealed antitumor activity
same,mean reduction in permeability,HT-29 tumor xenografts; 12 hours after PX-12 treatment,59.2%
same,mean reduction in permeability,HT-29 tumor xenografts; 24 h post-treatment with PX-12,51.6%
same,change in permeability (return to control values),"HT-29 tumor xenografts; 48 hours after PX-12, not significant",+3.4±17.6%
same,"vascular volume fraction of the tumor, control vs treated",HT-29 tumor xenografts; any time point (2-48 h) after PX-12,not significantly modified
same,mean reduction in tumor blood vessel permeability vs untreated tumors,HT-29 tumor xenografts; within 2 hours after PX-12 injection,63.4%
same,tumor VEGF levels,human VEGF (hVEGF); 2 or 12 hours post-treatment,no significant change
same,hVEGF levels within the tumors,human VEGF (hVEGF); after 24 hours of treatment,significant decrease
same,concentrations at which active as a Trx-1 inhibitor,Trx-1,submicromolar
same,mouse plasma VEGF levels,"mouse VEGF (mVEGF); 2 hours post treatment, PX-12 25 mg/kg ip",showed a decrease
same,mouse VEGF in plasma,"mouse VEGF (mVEGF); after 24 h of PX-12 treatment, 25 mg/kg ip, P<0.02",significant decrease
same,mouse VEGF in tumor,"mouse VEGF (mVEGF); starting at 2 h, not statistically significant at any time point, PX-12 25 mg/kg ip",only a small decrease
Cc1[nH]c(/C=C2\C(=O)Nc3ccccc32)c(C)c1CCC(=O)O [SU6668],fractional plasma volume,current tumor model,decrease
"COc1ccc(/C=C\c2cc(OC)c(OC)c(OC)c2)cc1OP(=O)(O)O [CA4P, combretastatin A4 phosphate]",tumor perfusion,HT-29 xenografts,only a small decrease
C[N+](C)([O-])CCCNc1c2ccccc2nc2cccc([N+](=O)[O-])c12 [aliphatic N-oxide of nitacrine],selectivity for hypoxic cells,hypoxic cells,approximately 1500 fold
"Avastin: human anti-VEGF antibody Avastin (Bevacizumab, Genentech) [reference compound]",vascular volume fraction VVf (%),"HT-29 tumor xenografts; 1 h post-Tx, HT-29, mean",4.4%
same,decrease in vascular volume fraction,"HT-29 tumor xenografts; one hour after injection, 20 μl/30 g i.v.",31.5%
same,decrease in vascular permeability,"HT-29 tumor xenografts; within an hour of injection, 20 μl/30 g i.v.",75%

# — patent US20060104902A1, “Method of preselection patients for anti-VEGF, anti-HIF-1 or anti-thioredoxin therapy” (priority 2004, published 2006)
